According to patent publication US20120071533A1, “ANTI-FUNGAL FORMULATION” (priority 2009, published 2012):
“And” between values parts separate entries of the source, which are not always exact repeats. Equal entries are not always repeated. Marks after values point to notes of the source that are not given here.

Experiments:
[1] = Solubility of luliconazole in solvents and model formulations by UV spectrophotometer at 296 nm, 4° C. and RT (21.5° C., ±1.5); assay type: physicochemical
Description: (§1) Typically, luliconazole was weighed into a screw-cap glass vial, the desired solvent was added and the vial was tightly closed. The vials containing suspension were sonicated in an ultra-sonicator bath at 40° C. for 20-30 seconds; the vials were taken out of the bath and swirled to mix the contents. The sonication and swirling steps were repeated 3-4 times till most of the luliconazole was dissolved. […] The samples were stored at RT (21.5° C.,±1.5) and at 4° C. in tightly closed screw-cap glass vials. Sample preparation was conducted in a dark room under yellow light and samples were protected from light during storage.
Solubility was determined after 24 hours and again after 3 days at respective storage conditions (RT and 4° C.) using a UV spectrophotometer (Pharma Spec 1700; Shimadzu). Samples for quantitative determination of solubility were drawn from the supernatant area of the suspension (solution) into a 3 ml syringe with a 0.1 μm (pore size) syringe filter (nylon, 13 mm) attached. The desired amount of solution was delivered into a 100 ml volumetric flask that was immediately closed tightly with a stopper and weighed accurately to determine the exact weight of the solution. As ethyl acetate is incompatible with the plastic in the syringe and the housing of the syringe-filter, the ethyl acetate solution was centrifuged at 4200 rpm for 5 minutes and the supernatant solution was drawn for analysis using a glass Pasteur pipette.
The samples taken in volumetric flasks were diluted with methanol to the mark and diluted further before analyzing on the UV spectrophotometer. A five point standard curve of luliconazole (at 20, 10, 6, 4 and 2 μg/ml) in methanol was determined by reading the absorbance at 296 nm. The samples were also read at 296 nm and the concentration of luliconazole was determined from the equation of the standard curve. The solubility of luliconazole in respective solvents and model formulations was then determined as % wt/wt.
Solubility was calculated as % wt/wt from the UV spectrophotometric data read at 296 nm.

[2] = Visual observations of luliconazole solubility samples (crystals / clear solution); assay type: physicochemical; conditions: for concentration at which luliconazole was completely soluble (visual observations): pilot studies
Description: as §1

genus Trichophyton = experiment: In vitro antifungal activity (MIC) against the genus Trichophyton; assay type: cell-based
Description: (§2) The antifungal activities of luliconazole, the Z form of luliconazole, and the SE form of luliconazole were determined. The compounds were tested against the genus Trichophyton and the genus Candida. The MICs against Trichophyton were 15-250 times higher for the Z form and 120-1000 times higher for the S-E form than for luliconazole. The MICs against the genus Candida were 4-500 times higher for the Z form and 8-1000 times higher for the S-E form than for luliconazole.

genus Candida = experiment: In vitro antifungal activity (MIC) against the genus Candida; assay type: cell-based
Description: as §2

[3] = system: Trichophyton rubrum, Trichophyton mentagrophytes and Trichophyton tonsurans; conditions: versus terbinafine, liranaftate, butenafine, amorolfine, ketoconazole, clotrimazole, neticonazole, miconazole, bifonazole; cited from earlier work
[4] = cited from earlier work
onychomycosis = onychomycosis of the toenail; package insert; cited from earlier work
[5] = in Acetone (theoretical 18%; #853-38-14)
[6] = in Benzyl alcohol (theoretical 40%; #853-38-13)
[7] = in Ethanol (theoretical 3.5%; #853-38-15)
[8] = in Ethyl acetate (theoretical 6.5%; #853-38-12)
[9] = in Transcutol P (theoretical 15%; #853-38-17)

In the case of `N#C/C(=C1/SC[C@@H](c2ccc(Cl)cc2Cl)S1)n1ccnc1` [luliconazole, (−)-(E)-[(4R)-(2,4-dichlorophenyl)-1,3-dithiolan-2-ylidene](1H-imidazol-1-yl)acetonitrile], the “Solubility wt/wt % 4° C. 24 hr” value [1, 5] is reported as 13.1 % wt/wt, the “Solubility wt/wt % 4° C. 3 days” value [1, 5] is reported as 12 % wt/wt and 12.49 % wt/wt and the “Solubility wt/wt % RT 24 hr” value ([1]; in Acetone (theoretical 18%; #853-38-14), average duplicate sample preparations) is reported as 17.67* % wt/wt. The “Solubility wt/wt % RT 3 days” value ([1]; in Benzyl alcohol (50%; saturated solution; #802-24-01)) was 43 % wt/wt and 43.44 % wt/wt, the “Solubility wt/wt % 4° C. 24 hr” value [1, 6] was 39.87 % wt/wt and the “Solubility wt/wt % 4° C. 3 days” value [1, 6] was 40 % wt/wt and 39.18 % wt/wt. The “Solubility wt/wt % RT 24 hr” value [1, 6] was 40.19 % wt/wt, the “Solubility wt/wt % RT 3 days” value ([1]; in Benzyl alcohol (theoretical 40%; #853-38-13), average duplicate sample preparations) was 40 % wt/wt and 39.91* % wt/wt and the “Solubility wt/wt % 4° C. 24 hr” value [1, 7] was 2.67 % wt/wt. For the same compound, the “Solubility wt/wt % 4° C. 3 days” value [1, 7] was 2.3 % wt/wt, the “Solubility wt/wt % RT 24 hr” value [1, 7] was 3.51 % wt/wt and the “Solubility wt/wt % 4° C. 24 hr” value [1, 8] was 6.14 % wt/wt. For the same compound, the “Solubility wt/wt % RT 24 hr” value ([1]; in Ethyl acetate (theoretical 6.5%; #853-38-12), average duplicate sample preparations) was 6.58* % wt/wt, the “Solubility wt/wt % RT 24 hr” value ([1]; in Isopropyl myristate (theoretical 5%; #853-38-10)) was 0.4 % wt/wt and 0.41 % wt/wt and the “Solubility wt/wt % RT 24 hr” value ([1]; in Propylene carbonate (theoretical 10%; #853-38-11)) was 8.98 % wt/wt. For the same compound, the “Solubility wt/wt % 4° C. 3 days” value [1, 9] was 14.78 % wt/wt, the “Solubility wt/wt % RT 24 hr” value [1, 9] was 15.12 % wt/wt and the “Solubility wt/wt % RT 3 days” value [1, 9] was 14.89 % wt/wt. The “visual observations at 3 days/4° C.” value [2, 6] was “clear solution”, the “visual observations at 3 days/RT” value [2, 6] was “clear solution” and the “visual observations at 3 days/RT” value [2, 7] was “clear solution”. For the same compound, the “visual observations at 3 days/4° C.” value [2, 8] was “clear solution”, the “visual observations at 3 days/RT” value [2, 8] was “clear solution” and the “visual observations at 3 days/4° C.” value [2, 9] was “clear solution”. For the same compound, the “visual observations at 3 days/RT” value [2, 9] was “clear solution”, the “concentration at which luliconazole was completely soluble (visual observations)” value ([2]; in Transcutol P) was ~15% and the “concentration at which luliconazole was completely soluble (visual observations)” value ([2]; in benzyl alcohol) was ~40%. For the same compound, the “MIC Range” value (genus Trichophyton; T. mentagrophytes (4 strains)) was 1 to 2 ng/mL, the “MIC Range” value (genus Trichophyton; T. rubrum (4 strains)) was 0.24 to 0.5 ng/mL and the “MIC Range” value (genus Candida; C. albicans (6 strains)) was 30 to 250 ng/mL. For the same compound, the “MIC Range” value (genus Candida; C. glabrata (5 strains)) was “≦0.0080-0.030 μg/mL”, the “potency compared with reference drugs” value [3] was “greater potency” and the solubility in water [4] was “practically insoluble in water”.
For `CN(C/C=C/C#CC(C)(C)C)Cc1cccc2ccccc12` [terbinafine], the “patients with both mycological cure and clinical cure” value (onychomycosis) is listed as 38%.
